Data from ChEMBL document CHEMBL3991601, “The target landscape of clinical kinase drugs” (Science, 2017).
Activity calls are given as the source filed them. For most assays here, no stated cut-off is given here; in the data, actives have a measured Kd and inactives only a lower limit.

What was measured:
[1] = biological target: Casein kinase II subunit alpha' (Homo sapiens, UniProt P19784)
[2] = biological target: T1, Dynamin-like GTPase OPA1, mitochondrial (Homo sapiens, UniProt O60313)
T1 sequence (O60313 whole entry): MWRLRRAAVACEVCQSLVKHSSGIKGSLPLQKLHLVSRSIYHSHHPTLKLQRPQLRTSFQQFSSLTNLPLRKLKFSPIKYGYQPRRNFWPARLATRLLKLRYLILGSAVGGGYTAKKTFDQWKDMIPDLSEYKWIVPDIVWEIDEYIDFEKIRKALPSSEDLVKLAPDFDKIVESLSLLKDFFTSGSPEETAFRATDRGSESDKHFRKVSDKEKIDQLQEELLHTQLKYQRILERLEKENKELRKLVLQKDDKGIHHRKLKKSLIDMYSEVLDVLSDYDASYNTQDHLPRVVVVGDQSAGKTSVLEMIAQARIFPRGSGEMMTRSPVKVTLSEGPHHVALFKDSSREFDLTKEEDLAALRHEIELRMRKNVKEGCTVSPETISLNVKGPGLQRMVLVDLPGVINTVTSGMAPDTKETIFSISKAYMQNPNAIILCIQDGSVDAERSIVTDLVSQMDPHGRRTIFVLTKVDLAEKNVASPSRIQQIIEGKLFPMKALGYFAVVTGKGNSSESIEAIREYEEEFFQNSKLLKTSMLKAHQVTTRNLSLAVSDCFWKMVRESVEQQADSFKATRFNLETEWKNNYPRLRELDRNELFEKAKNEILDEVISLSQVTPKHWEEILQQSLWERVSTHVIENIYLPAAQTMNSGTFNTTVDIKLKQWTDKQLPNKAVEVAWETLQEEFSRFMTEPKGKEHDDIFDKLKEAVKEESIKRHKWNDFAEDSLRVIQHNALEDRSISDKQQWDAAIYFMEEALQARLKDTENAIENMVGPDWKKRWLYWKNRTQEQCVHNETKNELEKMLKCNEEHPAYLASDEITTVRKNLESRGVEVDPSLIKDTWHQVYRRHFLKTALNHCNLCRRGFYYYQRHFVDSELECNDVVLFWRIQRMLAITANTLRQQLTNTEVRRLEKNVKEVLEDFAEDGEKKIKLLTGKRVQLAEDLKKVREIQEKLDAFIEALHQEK

[3] = biological target: Cyclin-dependent kinase 6 (Homo sapiens, UniProt Q00534)
[4] = biological target: T2, Mitogen-activated protein kinase kinase kinase kinase 3 (Homo sapiens, UniProt Q8IVH8)
T2 sequence (Q8IVH8 whole entry): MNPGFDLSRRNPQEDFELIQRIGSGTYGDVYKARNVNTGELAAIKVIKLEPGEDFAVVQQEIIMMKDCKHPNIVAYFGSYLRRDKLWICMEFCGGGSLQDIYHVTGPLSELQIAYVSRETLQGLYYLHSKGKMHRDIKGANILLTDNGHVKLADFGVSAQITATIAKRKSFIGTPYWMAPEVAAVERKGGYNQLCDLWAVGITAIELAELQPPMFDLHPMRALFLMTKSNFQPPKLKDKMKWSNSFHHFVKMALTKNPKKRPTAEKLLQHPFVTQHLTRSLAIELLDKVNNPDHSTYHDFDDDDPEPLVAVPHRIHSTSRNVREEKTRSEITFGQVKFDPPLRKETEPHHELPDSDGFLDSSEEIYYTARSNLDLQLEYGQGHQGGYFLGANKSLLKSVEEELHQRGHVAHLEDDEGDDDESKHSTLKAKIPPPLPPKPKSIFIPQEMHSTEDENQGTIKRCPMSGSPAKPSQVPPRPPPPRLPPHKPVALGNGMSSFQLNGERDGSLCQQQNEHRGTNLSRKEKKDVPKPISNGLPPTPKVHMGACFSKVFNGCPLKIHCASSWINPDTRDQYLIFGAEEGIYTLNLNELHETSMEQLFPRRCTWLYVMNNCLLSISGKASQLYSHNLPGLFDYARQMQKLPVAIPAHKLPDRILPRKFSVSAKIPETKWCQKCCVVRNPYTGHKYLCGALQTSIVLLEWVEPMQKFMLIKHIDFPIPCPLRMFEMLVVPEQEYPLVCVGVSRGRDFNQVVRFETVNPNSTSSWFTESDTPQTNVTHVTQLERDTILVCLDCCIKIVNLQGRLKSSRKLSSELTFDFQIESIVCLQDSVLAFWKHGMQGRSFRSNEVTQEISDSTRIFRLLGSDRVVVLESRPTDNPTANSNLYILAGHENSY

[5] = biological target: T3, Pyridoxal kinase (Homo sapiens, UniProt O00764)
T3 sequence (O00764 whole entry): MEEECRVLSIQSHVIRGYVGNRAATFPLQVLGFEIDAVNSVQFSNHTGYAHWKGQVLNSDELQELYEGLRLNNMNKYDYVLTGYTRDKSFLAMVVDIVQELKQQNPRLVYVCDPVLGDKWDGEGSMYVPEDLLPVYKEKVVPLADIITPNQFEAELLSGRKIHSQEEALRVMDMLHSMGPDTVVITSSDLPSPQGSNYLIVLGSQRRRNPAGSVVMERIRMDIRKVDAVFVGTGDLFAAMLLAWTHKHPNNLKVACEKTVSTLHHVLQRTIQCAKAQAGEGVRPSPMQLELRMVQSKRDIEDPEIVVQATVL

[6] = biological target: T4, MAP/microtubule affinity-regulating kinase 4 (Homo sapiens, UniProt Q96L34)
T4 sequence (Q96L34 whole entry): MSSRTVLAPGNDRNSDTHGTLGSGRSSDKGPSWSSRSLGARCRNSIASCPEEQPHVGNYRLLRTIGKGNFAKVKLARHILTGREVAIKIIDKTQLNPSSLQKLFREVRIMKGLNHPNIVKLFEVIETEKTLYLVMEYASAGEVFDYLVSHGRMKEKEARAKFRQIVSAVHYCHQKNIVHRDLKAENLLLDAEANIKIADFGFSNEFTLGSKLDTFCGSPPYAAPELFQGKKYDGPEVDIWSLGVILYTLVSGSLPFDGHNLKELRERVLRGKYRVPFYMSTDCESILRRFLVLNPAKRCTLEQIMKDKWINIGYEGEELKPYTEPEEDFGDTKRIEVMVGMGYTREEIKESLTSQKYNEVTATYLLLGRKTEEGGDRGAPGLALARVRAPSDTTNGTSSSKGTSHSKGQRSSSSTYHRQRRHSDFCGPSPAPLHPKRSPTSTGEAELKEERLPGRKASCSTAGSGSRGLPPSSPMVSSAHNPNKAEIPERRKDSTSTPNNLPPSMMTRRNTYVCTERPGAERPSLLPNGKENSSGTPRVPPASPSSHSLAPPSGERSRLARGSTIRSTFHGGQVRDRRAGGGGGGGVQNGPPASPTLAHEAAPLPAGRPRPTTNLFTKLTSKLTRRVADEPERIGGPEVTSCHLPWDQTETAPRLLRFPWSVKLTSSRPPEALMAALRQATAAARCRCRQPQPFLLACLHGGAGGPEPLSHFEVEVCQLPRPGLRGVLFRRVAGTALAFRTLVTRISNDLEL

Chain of Casein kinase II subunit alpha' (P19784 whole entry): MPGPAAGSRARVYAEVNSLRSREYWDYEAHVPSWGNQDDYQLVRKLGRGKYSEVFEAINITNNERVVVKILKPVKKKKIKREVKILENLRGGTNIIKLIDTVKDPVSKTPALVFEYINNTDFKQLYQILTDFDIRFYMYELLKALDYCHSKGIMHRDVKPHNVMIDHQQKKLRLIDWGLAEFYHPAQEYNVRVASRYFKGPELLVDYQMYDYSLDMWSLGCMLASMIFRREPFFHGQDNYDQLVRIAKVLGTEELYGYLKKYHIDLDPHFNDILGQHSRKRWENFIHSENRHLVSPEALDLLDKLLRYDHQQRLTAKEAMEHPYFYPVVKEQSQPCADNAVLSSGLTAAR
Chain of Cyclin-dependent kinase 6 (Q00534 whole entry): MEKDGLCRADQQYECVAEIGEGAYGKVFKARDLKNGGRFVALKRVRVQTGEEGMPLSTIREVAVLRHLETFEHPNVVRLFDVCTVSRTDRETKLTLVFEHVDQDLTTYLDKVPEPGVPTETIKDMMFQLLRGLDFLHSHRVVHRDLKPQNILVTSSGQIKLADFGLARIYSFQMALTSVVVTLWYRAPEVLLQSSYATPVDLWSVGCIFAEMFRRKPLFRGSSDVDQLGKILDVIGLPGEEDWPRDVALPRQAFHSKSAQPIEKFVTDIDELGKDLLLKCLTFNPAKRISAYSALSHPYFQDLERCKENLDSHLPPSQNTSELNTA

Row | Kd [1] | Kd [2] | Kd [3] | Kd [4] | Kd [5] | Kd [6] | Compound
1 | > 30 µM (inactive) | > 30 µM (inactive) | > 30 µM (inactive) | > 30 µM (inactive) | > 30 µM (inactive) | > 30 µM (inactive) | C[C@@H](Nc1cc(F)cc(F)c1)c1cc(C(=O)N(C)C)cc2c(=O)cc(N3CCOCC3)oc12 [AZD-8186]
2 | > 30 µM (inactive) | > 30 µM (inactive) | > 30 µM (inactive) | > 30 µM (inactive) | > 30 µM (inactive) | > 30 µM (inactive) | Cc1cc([C@@H](C)Nc2ccccc2C(=O)O)c2nc(N3CCOCC3)cc(=O)n2c1 [AZD-6482]
3 | > 30 µM (inactive) | > 30 µM (inactive) | > 30 µM (inactive) | > 30 µM (inactive) | > 30 µM (inactive) |  | CCS(=O)(=O)N1CC(CC#N)(n2cc(-c3ncnc4[nH]ccc34)cn2)C1 [BARICITINIB]
4 | > 30 µM (inactive) | > 30 µM (inactive) | > 30 µM (inactive) | > 30 µM (inactive) | > 30 µM (inactive) | > 30 µM (inactive) | CN1N=C(N)c2cn([C@@H]3O[C@H](COP(=O)(O)O)[C@@H](O)[C@H]3O)c3ncnc1c23 [TRICIRIBINE PHOSPHATE]
5 | > 30 µM (inactive) | > 30 µM (inactive) | > 30 µM (inactive) | > 30 µM (inactive) | > 30 µM (inactive) | > 30 µM (inactive) | CNC(=O)c1cc(Oc2ccc(NC(=O)Nc3ccc(Cl)c(C(F)(F)F)c3)c(F)c2)ccn1 [REGORAFENIB]
6 | 7.15 µM (active) | > 30 µM (inactive) | > 30 µM (inactive) | > 30 µM (inactive) | > 30 µM (inactive) | > 30 µM (inactive) | O=C(Nc1ccc(-c2ccnc(Nc3ccc(N4CCOCC4)cc3)n2)cc1)C1CCCN1 (stereo not given) [XL-019]
7 | > 30 µM (inactive) | > 30 µM (inactive) | > 30 µM (inactive) | > 30 µM (inactive) | > 30 µM (inactive) | > 30 µM (inactive) | CNS(=O)(=O)Nc1nccc(Cc2c(C)c3ccc(Oc4ncccn4)cc3oc2=O)c1F [AVUTOMETINIB]
8 | 4.41 µM (active) | > 30 µM (inactive) | > 30 µM (inactive) | > 30 µM (inactive) | > 30 µM (inactive) | > 30 µM (inactive) | Cc1cc(Nc2cc(N3CCN(C)CC3)nc(/C=C/c3ccccc3)n2)n[nH]1 [ENMD-2076]
9 | > 30 µM (inactive) | > 30 µM (inactive) | > 30 µM (inactive) | > 30 µM (inactive) | > 30 µM (inactive) | > 30 µM (inactive) | CCCS(=O)(=O)Nc1ccc(F)c(C(=O)c2c[nH]c3ncc(-c4ccc(Cl)cc4)cc23)c1F [VEMURAFENIB]
10 | > 30 µM (inactive) | > 30 µM (inactive) | > 30 µM (inactive) |  | > 30 µM (inactive) | > 30 µM (inactive) | COc1cc2nccc(Oc3ccc(NC(=O)NC4CC4)c(Cl)c3)c2cc1C(N)=O [LENVATINIB]
11 | > 30 µM (inactive) | > 30 µM (inactive) | > 30 µM (inactive) |  | 5.25 µM (active) |  | Nc1nc(N)c2nc(-c3cccc(O)c3)c(-c3cccc(O)c3)nc2n1 [TG100-115]
12 |  | > 30 µM (inactive) | > 30 µM (inactive) |  | > 30 µM (inactive) |  | CCn1c(-c2nonc2N)nc2c(C#CC(C)(C)O)ncc(OC[C@H]3CCCNC3)c21 [GSK-690693]
13 | > 30 µM (inactive) | > 30 µM (inactive) | > 30 µM (inactive) | > 30 µM (inactive) | > 30 µM (inactive) |  | C[C@@H](c1ccc2nccn2c1)n1nnc2ncc(-c3cnn(C)c3)nc21 [SAVOLITINIB]
14 |  | > 30 µM (inactive) | 2.83 µM (active) |  | > 30 µM (inactive) |  | CN1CCN(c2ccc3nc(-c4c(N)c5c(F)cccc5[nH]c4=O)[nH]c3c2)CC1 [DOVITINIB]
15 | > 30 µM (inactive) | > 30 µM (inactive) |  | > 30 µM (inactive) | > 30 µM (inactive) | > 30 µM (inactive) | CN(C)C(=O)c1cc2cnc(Nc3ccc(N4CCNCC4)cn3)nc2n1C1CCCC1 [RIBOCICLIB]
16 | 3.02 µM (active) | > 30 µM (inactive) |  | > 30 µM (inactive) | > 30 µM (inactive) |  | N[C@@H]1CCCN(c2c(/C=C3\SC(=O)NC3=O)cccc2-c2ccccc2)C1
17 | > 30 µM (inactive) | > 30 µM (inactive) |  | > 30 µM (inactive) | > 30 µM (inactive) | > 30 µM (inactive) | CCc1cnn2c(NCc3ccc[n+]([O-])c3)cc(N3CCCC[C@H]3CCO)nc12 [DINACICLIB]
18 | 0.015 µM (active) | > 30 µM (inactive) | 1.72 µM (active) |  | > 30 µM (inactive) | > 30 µM (inactive) | Cc1nc(N)sc1-c1ccnc(Nc2ccc(N3CCOCC3)cc2)n1 [CYC-116]
19 | > 30 µM (inactive) | > 30 µM (inactive) | > 30 µM (inactive) | > 30 µM (inactive) | > 30 µM (inactive) |  | CC(C)Nc1cc(-c2c[nH]c(C(=O)N[C@H](CO)c3cccc(Cl)c3)c2)c(Cl)cn1 [ULIXERTINIB]

Row | Compound | Kd [1] | Kd [2] | Kd [3] | Kd [4] | Kd [5] | Kd [6]
20 | C=CC(=O)N1CCC(Oc2cc3c(Nc4ccc(Cl)c(Cl)c4F)ncnc3cc2OC)CC1 [POZIOTINIB] |  | > 30 µM (inactive) | > 30 µM (inactive) | > 30 µM (inactive) | > 30 µM (inactive) | > 30 µM (inactive)
21 | Cc1cn(-c2cc(NC(=O)c3ccc(C)c(Nc4nccc(-c5cccnc5)n4)c3)cc(C(F)(F)F)c2)cn1 [NILOTINIB] |  | > 30 µM (inactive) | > 30 µM (inactive) |  | > 30 µM (inactive) | 
